Where a name gives a salt, the structure may show the parent alone. Read-outs that look alike come from different tables or passages of the source.
Tests used:
PKC α = target: T1, PKC α (Homo sapiens, UniProt P17252); assay: PKC enzyme assay (BIOTRAK Protein kinase C enzyme assay system, 32P-ATP phosphorylation of peptide […]); format: biochemical
T1 construct: purchased CALBIOCHEM
Protocol: (§1) As the reagent for enzyme assay, BIOTRAK Protein kinase C enzyme assay system (hereinafter the system, Amersham), and as the PKC enzyme standard product, Protein Kinase C, Human Recombinant (CALBIOCHEM) were purchased and used in the assay. A substrate mixture was prepared by mixing calcium buffer (12 mM calcium acetate, 50 mM Tris/HCl pH 7.5, 0.05% (w/v) sodium azide), Lipid (0.3 mg/ml La-phosphatidyl-L-serine, […] phorbol 12-myristate 13-acetate, 50 mM Tris/HCl pH 7.5, 0.05% (w/v) sodium azide), peptide buffer (900 µM peptide […]), 50 mM Tris/HCl pH 7.5, 0.05% (w/v) sodium azide), DTT buffer (30 mM dithiothreitol, 50 mM Tris/HCl pH 7.5, 0.05% (w/v) sodium azide), and magnesium ATP buffer (1.2 mM ATP, […] pH 7.4, 72 mM magnesium chloride) all attached to the system in a ratio of 1:1:1:1:0.8 and adding [ y -32P]ATP (Amersham, cat. […] The PKC enzyme standard product was diluted with an assay buffer (10 mM Hepes pH 7.4, 0.01% Triton X-100) to a concentration of 400 ng/ml and used as the enzyme solution. The substrate mixture and a test substance (diluted to the final concentration of 1 nM-10 µM with dimethyl sulfoxide (DMSO)) were mixed at a ratio of 20:1. The enzyme solution was added in the amount equivalent to the substrate mixture and mixed, which was followed by incubation at 37°C for 15 minutes. The reaction terminator (300 mM orthophosphoric acid containing carmosine red) attached to the system was added in the amount equivalent to the substrate mixture to end the reaction, and the reaction mixture was spotted on a phosphocellulose paper (Whatman, P-81), washed twice with 75 mM orthophosphoric acid and assayed for radioactivity by BAS2000 (Fuji film).
(§2) The ratio of the radioactivity of the addition of the test substance to the addition of DMSO was determined, and IC50 was calculated from inhibition at each concentration.

PKC β II = target: T2, PKC β II (Homo sapiens, UniProt P05771); assay: as above; format: biochemical; details: for Ratio α/β: IC50 PKC α / IC50 PKC β II
T2 construct: purchased CALBIOCHEM
Excerpt: The method for determining the PKC inhibitory activity of the compound of the present invention is explained in the following. Inasmuch as PKCβII is present in greater number in intravascular cells than PKCβI, PKCβII was mainly used here to test the enzyme activity.
as §1, §2

[1] = Protein Kinase C, Human Recombinant, test substance 1 nM-10 µM, 37°C, 15 minutes, read-out: Inhibition of PKC activity IC50 PKC α
[2] = Protein Kinase C, Human Recombinant, test substance 1 nM-10 µM, 37°C, 15 minutes, read-out: Inhibition of PKC activity IC50 PKC β II
[3] = read-out: Inhibition of PKC activity IC50 PKC α, Protein Kinase C, Human Recombinant, test substance 1 nM-10 µM, 37°C, 15 minutes
[4] = read-out: Inhibition of PKC activity IC50 PKC β II, Protein Kinase C, Human Recombinant, test substance 1 nM-10 µM, 37°C, 15 minutes

T2 sequence (P05771 other isoform, or with tags, fused parts or gaps): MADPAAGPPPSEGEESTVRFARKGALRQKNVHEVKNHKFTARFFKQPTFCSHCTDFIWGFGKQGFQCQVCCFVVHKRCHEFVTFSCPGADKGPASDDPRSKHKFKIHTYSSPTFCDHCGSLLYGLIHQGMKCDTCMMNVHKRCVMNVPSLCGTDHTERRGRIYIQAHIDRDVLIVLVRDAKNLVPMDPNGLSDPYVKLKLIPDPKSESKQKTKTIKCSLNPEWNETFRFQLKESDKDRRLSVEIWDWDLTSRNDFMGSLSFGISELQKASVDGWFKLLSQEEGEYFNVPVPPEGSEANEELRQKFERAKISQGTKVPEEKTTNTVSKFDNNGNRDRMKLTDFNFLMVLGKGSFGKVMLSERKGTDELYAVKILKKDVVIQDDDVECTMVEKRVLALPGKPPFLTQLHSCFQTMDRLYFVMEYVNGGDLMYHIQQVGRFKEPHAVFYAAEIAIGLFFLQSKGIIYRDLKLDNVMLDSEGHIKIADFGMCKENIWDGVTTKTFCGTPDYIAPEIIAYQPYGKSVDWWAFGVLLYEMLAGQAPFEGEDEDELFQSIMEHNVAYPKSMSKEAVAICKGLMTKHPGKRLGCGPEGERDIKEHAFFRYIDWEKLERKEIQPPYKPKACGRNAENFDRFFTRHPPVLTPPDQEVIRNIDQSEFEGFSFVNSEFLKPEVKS

Compound	IC50 (PKC α; [1])	Ratio α/β (PKC β II)	IC50 (PKC β II; [2])	IC50 (PKC α)	IC50 (PKC β II)	IC50 (PKC α; [3])	IC50 (PKC β II; [4])
CCN(CC)CCCn1cc(C2=C(Nc3ccccc3)C(=O)NC2=O)c2ccccc21 [Example 2-13, 3-[1-(3-diethylaminopropyl)-1H-indol-3-yl]-4-(phenylamino)-1H-pyrrole-2,5-dione]	1.26 µM	60	0.021 µM				
NC(=O)C1CCN(CCCn2cc(C3=C(Nc4ccccc4)C(=O)NC3=O)c3ccccc32)CC1 [Example 2-33, 3-[1-{3-(4-carbamoylpiperidino)propyl}-1H-indol-3-yl]-4-(phenylamino)-1H-pyrrole-2,5-dione]	0.676 µM	68	0.01 µM				
CCN(CC)C[C@H]1Cc2c(C3=C(Nc4ccccc4)C(=O)NC3=O)c3ccccc3n2C1 [Example 4-65]		61	0.032 µM			1.95 µM	
CCNCC1Cc2c(C3=C(Nc4ccc(F)cc4)C(=O)NC3=O)c3ccccc3n2C1 (stereo not shown) [Example 4-33]		75				0.321 µM	0.004 µM
Cc1c(C2=C(Nc3ccccc3)C(=O)NC2=O)c2ccccc2n1CCCN(C)C [Example 2-54, 3-[1-(3-dimethylaminopropyl)-2-methyl-1H-indol-3-yl]-4-(phenylamino)-1H-pyrrole-2,5-dione]	6.67 µM	109	0.061 µM				
O=C1NC(=O)C(c2cn(CCCCN3CCC(O)CC3)c3ccccc23)=C1Nc1cccc(Cl)c1 [Example 2-27, 3-[(3-chlorophenyl)amino]-4-[1-{4-(4-hydroxypiperidino)butyl}-1H-indol-3-yl]-1H-pyrrole-2,5-dione]	0.973 µM	37	0.026 µM				
CN(C)CCCn1cc(C2=C(Nc3cccc(Cl)c3)C(=O)NC2=O)c2ccccc21 [Example 2-12, 3-[1-(3-dimethylaminopropyl)-1H-indol-3-yl]-4-[(3-chlorophenyl)amino]-1H-pyrrole-2,5-dione]	0.558 µM	56	0.01 µM				
N=C(N)SCCCn1cc(C2=C(Nc3ccccc3)C(=O)NC2=O)c2ccccc21 [Example 2-43, 3-[1-(3-amidinothiopropyl)-1H-indol-3-yl]-4-(phenylamino)-1H-pyrrole-2,5-dione hydrobromide]	0.027 µM		0.002 µM				
Cc1cccc(NC2=C(c3c[nH]c4ccccc34)C(=O)NC2=O)c1 [Example 1-5, 3-(1H-indol-3-yl)-4-[(3-methylphenyl)amino]-1H-pyrrole-2,5-dione]	4.92 µM	33	0.151 µM				
3-[(3-chlorophenyl)amino]-4-[1-{3-(4-hydroxymethyl-imidazol-1-yl)propyl}-1H-indol-3-yl]-1H-pyrrole-2,5-dione and 3-[(3-chlorophenyl)amino]-4-[1-{3-(5-hydroxymethyl-imidazol-1-yl)propyl}-1H-indol-3-yl]-1H-pyrrole-2,5-dione [Example 2-60]	0.762 µM	48	0.016 µM				
CN(C)C[C@H]1CCc2c(C3=C(Nc4ccccc4)C(=O)NC3=O)c3ccccc3n2C1 [Example 4-55]		63	0.004 µM			0.252 µM	
O=C1NC(=O)C(c2cn(CCCO)c3ccccc23)=C1Nc1cccc(Cl)c1 [Example 2-3, 3-[(3-chlorophenyl)amino]-4-[1-(3-hydroxypropyl)-1H-indol-3-yl]-1H-pyrrole-2,5-dione]	3.9 µM	85	0.046 µM				
CN(C)CCn1cc(C2=C(Nc3ccccc3)C(=O)NC2=O)c2ccccc21 [Example 2-9, 3-[1-(2-dimethylaminoethyl)-1H-indol-3-yl]-4-(phenylamino)-1H-pyrrole-2,5-dione]	2.16 µM	77	0.028 µM				
O=C1NC(=O)C(c2cn(CCO)c3ccccc23)=C1Nc1ccccc1 [Example 2-4, 3-[1-(2-hydroxyethyl)-1H-indol-3-yl]-4-(phenylamino)-1H-pyrrole-2,5-dione]	5.8 µM	79	0.073 µM				
O=C1NC(=O)C(c2cn(CCCO)c3ccccc23)=C1Nc1ccccc1 [Example 2-1, 3-[1-(3-hydroxypropyl)-1H-indol-3-yl]-4-(phenylamino)-1H-pyrrole-2,5-dione]	1.62 µM	54	0.03 µM				

Other lines, results leading:

IC50 (PKC α; [1])	Ratio α/β (PKC β II)	IC50 (PKC β II; [2])	IC50 (PKC α)	IC50 (PKC β II)	IC50 (PKC α; [3])	IC50 (PKC β II; [4])	Compound
0.257 µM	51	0.005 µM					CN(C)CC1CCn2c(c(C3=C(Nc4ccccc4)C(=O)NC3=O)c3ccccc32)C1 (stereo not shown) [Example 4-2, 3-[8-(dimethylaminomethyl)-6,7,8,9-tetrahydropyrido[1,2-a]indol-10-yl]-4-(phenylamino)-1H-pyrrole-2,5-dione]
2.35 µM	117	0.02 µM					Cc1c(C2=C(Nc3ccccc3)C(=O)NC2=O)c2ccccc2n1CCCn1ccnc1 [Example 2-69, 3-[1-(3-imidazol-1-ylpropyl)-2-methyl-1H-indol-3-yl]-4-(phenylamino)-1H-pyrrole-2,5-dione]
0.518 µM	29	0.018 µM					CN1CCC(Cn2cc(C3=C(Nc4ccccc4)C(=O)NC3=O)c3ccccc32)CC1 [Example 3-4, 3-[1-{(1-methylpiperidin-4-yl)methyl}-1H-indol-3-yl]-4-(phenylamino)-1H-pyrrole-2,5-dione]
	101		0.708 µM	0.007 µM			CCN(C)CC1CCc2c(C3=C(Nc4ccccc4)C(=O)NC3=O)c3ccccc3n2C1 (stereo not shown) [Example 4-51]
0.401 µM	45	0.009 µM					Cc1nccn1CCCn1cc(C2=C(Nc3ccccc3)C(=O)NC2=O)c2ccccc21 [Example 2-61, 3-[1-{3-(2-methylimidazol-1-yl)propyl}-1H-indol-3-yl]-4-(phenylamino)-1H-pyrrole-2,5-dione]
	53				0.632 µM	0.012 µM	CCN(C)C[C@H]1Cc2c(C3=C(Nc4ccc(F)cc4)C(=O)NC3=O)c3ccccc3n2C1 [Example 4-66]
	109				4.99 µM	0.046 µM	O=C1NC(=O)C(c2c3n(c4ccccc24)C[C@H](CN2CCOCC2)C3)=C1Nc1ccccc1 [Example 4-59]
			1.63 µM	0.016 µM			O=C1NC(=O)C(c2c3n(c4ccccc24)CCC(Cn2ccnc2)C3)=C1Nc1ccccc1 (stereo not shown) [Example 4-3, 3-[8-(1-imidazolylmethyl)-6,7,8,9-tetrahydropyrido[1,2-a]indol-10-yl]-4-(phenylamino)-1H-pyrrole-2,5-dione]
	57				0.569 µM	0.01 µM	CCN(CC)C[C@H]1CCc2c(C3=C(Nc4ccccc4)C(=O)NC3=O)c3ccccc3n2C1 [Example 4-54]
	77				6.46 µM	0.084 µM	COC[C@H]1Cc2c(C3=C(Nc4ccc(F)cc4)C(=O)NC3=O)c3ccccc3n2C1 [Example 4-57]
4.43 µM	55	0.081 µM					O=C1NC(=O)C(c2cn(CCn3ccnc3)c3ccccc23)=C1Nc1ccccc1 [Example 2-62, 3-[1-(2-imidazol-1-ylethyl)-1H-indol-3-yl]-4-(phenylamino)-1H-pyrrole-2,5-dione]
	68				3.88 µM	0.057 µM	O=C1NC(=O)C(c2c3n(c4ccccc24)C[C@@H](CN2CCOCC2)CC3)=C1Nc1ccccc1 [Example 4-52]
	64				0.831 µM	0.013 µM	O=C1NC(=O)C(c2c3n(c4ccccc24)CC(CN2CCC(O)CC2)C3)=C1Nc1ccccc1 (stereo not shown) [Example 4-27]
	82				0.494 µM	0.006 µM	CCN(CC)C[C@@H]1CCc2c(C3=C(Nc4ccccc4)C(=O)NC3=O)c3ccccc3n2C1 [Example 4-50]
	93		0.557 µM	0.006 µM			CCN(C)C[C@@H]1CCc2c(C3=C(Nc4ccccc4)C(=O)NC3=O)c3ccccc3n2C1 [Example 4-40]
